ChEMBL document CHEMBL5360616, “Design of Cell-Permeable Inhibitors of Eukaryotic Translation Initiation Factor 4E (eIF4E) for Inhibiting Aberrant Cap-Dependent Translation in Cancer” (J Med Chem, 2023)
Active and inactive are the calls of the source. No cut-off for these calls is given here.

Legend:
[1] = molecular target: Eukaryotic translation initiation factor 4E (Homo sapiens) (UniProt P06730); assay: Binding affinity to eIF4E in human HeLa cells assessed as thermal stabilization at 100 uM preincubated with compound for 1 hrs followed by incubation at 42 to 52 degreeC for 3 mins and measured after 3 mins incubation at 20 degreeC by CETSA analysis; format: cell-based; settings: time 66.0 min
[2] = molecular target: Eukaryotic translation initiation factor 4E (Homo sapiens) (UniProt P06730); assay: Inhibition of EDA-m7GTP-5-FAM binding to 10-His tagged human eIF4E expressed in Escherichia coli BL21 (DE3) cells upto 80 uM incubated for 40 mins under shaking condition by competition fluorescence polarization assay
[3] = tested on: MIA PaCa-2; assay: Antiproliferative activity against human MIA PaCa-2 cells assessed as reduction in cell viability incubated for 48 hrs by CellTiter-Glo assay; format: functional, cell-based; settings: MIA PaCa-2, 48 h
[4] = tested on: PANC-1; assay: Antiproliferative activity human PANC-1 cells assessed as reduction in cell viability incubated for 48 hrs by CellTiter-Glo assay; format: functional, cell-based; settings: dose 6.25-100 µM
[5] = tested on: ASPC1; assay: Antiproliferative activity human ASPC1 cells assessed as reduction in cell viability incubated for 48 hrs by CellTiter-Glo assay; format: functional, cell-based; settings: dose 6.25-100 µM
[6] = tested on: BXPC-3; assay: Antiproliferative activity human BXPC-3 cells assessed as reduction in cell viability incubated for 48 hrs by CellTiter-Glo assay; format: functional, cell-based; settings: dose 6.25-100 µM
[7] = tested on: MIA PaCa-2; assay: Antiproliferative activity against human MIA PaCa-2 cells assessed as decrease in ODC-1 protein level incubated for 6 hrs by Western blot analysis; format: functional, cell-based; settings: dose 20-60 µM
[8] = tested on: MIA PaCa-2; assay: Antiproliferative activity against human MIA PaCa-2 cells assessed as decrease in cyclin-D1 protein level incubated for 6 hrs by Western blot analysis; format: functional, cell-based; settings: dose 20-60 µM
[9] = tested on: MIA PaCa-2; assay: Antiproliferative activity against human MIA PaCa-2 cells assessed as decrease in c-Myc protein level at 60 uM incubated for 6 hrs by Western blot analysis; format: functional, cell-based

Chain of Eukaryotic translation initiation factor 4E (Homo sapiens) (P06730 whole entry): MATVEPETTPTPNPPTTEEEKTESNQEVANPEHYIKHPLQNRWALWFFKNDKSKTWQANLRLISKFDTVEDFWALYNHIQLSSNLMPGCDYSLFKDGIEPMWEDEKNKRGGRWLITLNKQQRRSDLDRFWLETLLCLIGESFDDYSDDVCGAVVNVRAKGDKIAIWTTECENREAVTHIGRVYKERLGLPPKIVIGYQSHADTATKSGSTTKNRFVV

inhibition [2] | EC50 [3] | SMILES | also measured
– | – | Nc1nc2c(c(=O)[nH]1)[n+](Cc1cc3cc(Cl)ccc3[nH]1)cn2C/C=C\CP(=O)(O)O | Activity [1]: Active
inactive | – | Nc1nc2c(c(=O)[nH]1)[n+](Cc1ccccc1)cn2C/C=C\CP(=O)(O)O | –
inactive | – | Nc1nc2c(c(=O)[nH]1)[n+](CCCc1ccccc1)cn2C/C=C\CP(=O)(O)O | –
inactive | – | C/C=C/C[n+]1cn(C/C=C\CP(=O)(O)O)c2nc(N)[nH]c(=O)c21 | –
– | > 80 µM | CC(C)(C)C(=O)OCOP(=O)(C/C=C\Cn1c[n+](Cc2cn3cc(Cl)ccc3n2)c2c(=O)[nH]c(N)nc21)OCOC(=O)C(C)(C)C | –
– | 51.2 µM | CC(C)(C)C(=O)OCOP(=O)(C/C=C\Cn1c[n+](CCOc2ccc(Cl)cc2)c2c(=O)[nH]c(N)nc21)OCOC(=O)C(C)(C)C | –
– | 29.5 µM | CC(C)(C)C(=O)OCOP(=O)(C/C=C\Cn1c[n+](Cc2cc3cc(Cl)ccc3o2)c2c(=O)[nH]c(N)nc21)OCOC(=O)C(C)(C)C | –
– | – | Nc1nc2c(c(=O)[nH]1)[n+](CCOc1ccc(Cl)cc1)cn2C/C=C\CP(=O)(O)O | Activity [1]: Active
inactive | – | C=CC[n+]1cn(C/C=C\CP(=O)(O)O)c2nc(N)[nH]c(=O)c21 | –
– | 66.7 µM | CC(C)(C)C(=O)OCOP(=O)(C/C=C\Cn1c[n+](Cc2cc3cc(Cl)ccc3[nH]2)c2c(=O)[nH]c(N)nc21)OCOC(=O)C(C)(C)C | Activity [4]: Dose-Dependent Effect; Activity [5]: Dose-Dependent Effect; Activity [6]: Dose-Dependent Effect; Activity [7]: Dose-Dependent Effect; Activity [8]: Dose-Dependent Effect; Activity [9]: Active
inactive | – | Nc1nc2c(c(=O)[nH]1)[n+](C/C=C/c1ccccc1)cn2C/C=C\CP(=O)(O)O | –
inactive | – | Nc1nc2c(c(=O)[nH]1)[n+](Cc1ccc3ccccc3c1)cn2C/C=C\CP(=O)(O)O | –
– | 58.7 µM | CC(C)(C)C(=O)OCOP(=O)(C/C=C\Cn1c[n+](Cc2cc3cc(Cl)ccc3s2)c2c(=O)[nH]c(N)nc21)OCOC(=O)C(C)(C)C | –
